Entries after “also recorded” stand apart in the source; their conditions may differ. Where two headings read alike, the source gives them in different places.
Key:
[1] = for Maximum tolerated dose (MTD): first interim analysis, highest dose 104.3 mg/kg per dose
Procedure: An interim analysis was performed on the study participants.
(§1) A standard 3×3 phase I dose-escalation design was used with patients (n=31) with advanced solid malignancies.
Pharmacokinetic (PK) information was calculated with serial serum collection data. Tumor response was determined using RECIST 1.1.

[2] = test system: advanced solid malignancies
Procedure: The study was also performed to examine preliminary efficacy (using RECIST 1.1 criteria), overall clinical benefit, and progression free survival. An interim analysis was performed on the study participants.
as §1
Tumor response was determined using RECIST 1.1.
An exploratory assessment of antitumor activity was undertaken during the study using modified Response Criteria in Solid Tumors (RECIST) v1.1. Tumors were measured at baseline or screening, at the end of Cycle 1 and Cycle 2 treatments, and once every 2 treatment cycles (2 months) thereafter in the absence of clinically rapid progression of disease.

[3] = Phase I trial pharmacokinetic analysis (serial serum collection)
Procedure: Pharmacokinetic (PK) information was calculated with serial serum collection data. Tumor response was determined using RECIST 1.1. Clinical benefit (decreased pain, increased quality of life) was assessed by the treating physician.
Pharmacokinetic and pharmacodynamic analyses were performed during the study as well.

[4] = Example 4, of 39 evaluable subjects
[5] = person, pleomorphic fibrosarcoma, 6 cycles, 22.5 to 58.7 mg/kg/dose

## COC1=C(OC)C(=O)C(C/C=C(\C)CC/C=C(\C)CC/C=C(\C)CC/C=C(\C)CC/C=C(\C)CC/C=C(\C)CC/C=C(\C)CC/C=C(\C)CC/C=C(\C)CCC=C(C)C)=C(C)C1=O [CoQ10, Coenzyme Q10]
[1]; 104.3 mg/kg
  Maximum tolerated dose (MTD): has not been identified; also recorded: had not been reached
[1]; listed as coenzyme Q10, 104.3 mg/kg
  Maximum tolerated dose (MTD): no MTD had been reached
[1]; in vivo
  Patients reporting headache during first week of treatment (%): 29.0%
  Patients reporting headache during first week of treatment (number): Nine
  Patients with Grade I asymptomatic elevation of INR (%): 74.1%
  Patients with Grade I asymptomatic elevation of INR (number): 23 patients
  Patients with Grade II INR elevation of greater than 2.0 (%): 45.1%
  Patients with Grade II INR elevation of greater than 2.0 (number): 14 patients
  Primary Reason for Discontinuation: Intolerable Toxicity, %: 8%
  Subjects with INR greater than 3 (%): 12.9%
  Subjects with INR greater than 3 (number): four
  Subjects with INR greater than 5 (%): 6%
  Subjects with INR greater than 5 (number): two
[2]; 50 subjects
  Best Response: Unevaluable, %: 20%
  Best Response: Unknown, %: 2%
  Primary Reason for Discontinuation: Progressive Disease, %: 52%
[2]; 50 subjects, RECIST v1.1
  Best Response: Complete Response, %: 0%
  Best Response: Partial Response, %: 2%
  Best Response: Progressive Disease, %: 30%
  Best Response: Stable Disease, %: 46%
[2]; [4]
  Best outcome of partial response (number of subjects): 2 subjects
  Best outcome of progressive disease (number of subjects): 15 subjects
  Best outcome of stable disease (number of subjects): 22 subjects
[2]; first interim analysis
  Average time on treatment of patients with clinical benefit: 16 weeks
  Median Progression Free survival: 2 months
[2]; first interim analysis, n=31
  Patients with a clinical benefit (%): 61.2%
  Patients with a clinical benefit (number): Nineteen
[2]; first interim analysis, treatment until clinical progression
  Average time subjects remained on treatment: 90 days
[2]; interim data summary
  Progression free survival and/or clinical benefit: a majority of patients enrolled in this trial had an increased progression free survival and/or clinical benefit
  Tumor responses observed: A partial response and minor response were observed
[2]; of 40 evaluable subjects
  Evaluable subjects with clinically relevant response by RECIST 1.1 (at least stable disease), number: 24 subjects
[2]; of 40 evaluable subjects who completed at least one treatment cycle
  Evaluable subjects with clinically relevant response by RECIST 1.1 (at least stable disease), %: 60%
[2]; one subject with sarcoma of the extremity
  Duration of partial response: at least 6 months
[2]; person, metastatic myxoid liposarcoma, 58.6 mg/kg/dose, four treatment cycles
  Individual outcome: tumor lesion (CT): resolution of their anterior mediastinal lesion
[2]; person, pleomorphic fibrosarcoma with bone metastasis, 6 cycles, 22.5 to 58.7 mg/kg/dose
  Individual outcome: tumor response: minor response
[2]; [5]
  Individual outcome: pain: significant improvement in pain
  Individual outcome: tumor size (CT): Tumor shrinkage was also observed
[2]; person, pleomorphic fibrosarcoma, 22.5 to 58.7 mg/kg/dose
  Individual outcome: duration of response: over 10 months
[3]; C31510 formulation, FIG. 5
  Dose-proportionality of AUC: not strictly proportional to dose
[3]; human, IV infusion
  Dependence of t1/2 on dose: little or no dependence on dose
  Linearity of pharmacokinetics: linear

Reference: patent US20220096399A1 (Berg LLC, priority 2012, published 2022)
